# Measured values from patent US6358885B1, “Substituted phenylheterocyclic herbicides” (Mississippi State University, priority 1992, dated 2002).
# How the values were obtained:
# wild oat = test: Test B preemergence/postemergence greenhouse plant response rating 0 to 10; type: in vivo, Avena fatua; settings: POSTEMERGENCE, 0 to 10 scale
# Outline: (§1)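 Test chemicals were sprayed onto freshly planted seed and, concurrently, onto young plants between the one and four leaf stage. After a twelve- to sixteen-day greenhouse period, each species was visually compared with untreated controls.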
# crabgrass = test: as above; type: in vivo, Digitaria spp.; settings: for Plant response rating, Crabgrass: 0 to 10 scale
# Outline: as §1
# morningglory [1] = test: as above; type: in vivo, Ipomoea hederacea; settings: 0 to 10 scale
# Outline: as §1
# soybean [2] = test: Test C preemergence/postemergence greenhouse plant response rating 0 to 100; type: in vivo, Glycine max; settings: POSTEMERGENCE; for Plant response rating, Soybean: 0 to 100 scale
# Outline: (§2)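 Compounds in non-phytotoxic solvent went onto sandy loam before emergence (seeded one day earlier) or onto plants at the one-to-four leaf stage. Duck salad was treated via flood water (~2.5 cm, maintained) over silt loam.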
# rape = test: Test B preemergence/postemergence greenhouse plant response rating 0 to 10; type: in vivo, Brassica napus; settings: 0 to 10 scale
# Outline: as §1
# sorghum = test: as above; type: in vivo, Sorghum bicolor; settings: 0 to 10 scale
# Outline: as §1
# downy brome = test: Test C preemergence/postemergence greenhouse plant response rating 0 to 100; type: in vivo, Bromus tectorum; settings: POSTEMERGENCE; for Plant response rating Downy Brome: 0 to 100 scale
# Outline: as §2
# chickweed [3] = test: as above; type: in vivo, Stellaria media; settings: POSTEMERGENCE; for Plant response rating, Chickweed: 0 to 100 scale
# Outline: as §2
# soybean [4] = test: Test B preemergence/postemergence greenhouse plant response rating 0 to 10; type: in vivo, Glycine max; settings: 0 to 10 scale
# Outline: as §1
# corn = test: as above; type: in vivo, Zea mays; settings: for Plant response rating, Corn: 0 to 10 scale
# Outline: as §1
# barley = test: Test C preemergence/postemergence greenhouse plant response rating 0 to 100; type: in vivo, Hordeum vulgare; settings: POSTEMERGENCE; for Plant response rating Barley Igri: 0 to 100 scale
# Outline: as §2
# bedstraw = test: as above; type: in vivo, Galium aparine; settings: POSTEMERGENCE; for Plant response rating, Bedstraw: 0 to 100 scale
# Outline: as §2
# wild buckwheat = test: as above; type: in vivo, Polygonum convolvulus; settings: POSTEMERGENCE; for Plant response rating, Wild buckwheat: 0 to 100 scale
# Outline: as §2
# chickweed [5] = test: Test B preemergence/postemergence greenhouse plant response rating 0 to 10; type: in vivo, Stellaria media; settings: for Plant response rating, Chickweed: 0 to 10 scale
# Outline: as §1
# morningglory [6] = test: Test C preemergence/postemergence greenhouse plant response rating 0 to 100; type: in vivo, Ipomoea hederacea; settings: POSTEMERGENCE; for Plant response rating, Morningglory: 0 to 100 scale
# Outline: as §2
# purple nutsedge = test: Test B preemergence/postemergence greenhouse plant response rating 0 to 10; type: in vivo, Cyperus rotundus; settings: 0 to 10 scale
# Outline: as §1
# umbrella sedge = test: Test C flood test plant response rating 0 to 100; type: in vivo, Cyperus difformis; settings: for Plant response rating Umbrella sedge: flood test species listed under POSTEMERGENCE, 0 to 100 scale
# Outline: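 Compounds in non-phytotoxic solvent applied preemergence to sandy loam one day after planting, postemergence at the 1–4 leaf stage, or to ~2.5 cm floodwater over silt loam.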
# wheat = test: Test B preemergence/postemergence greenhouse plant response rating 0 to 10; type: in vivo, Triticum aestivum; settings: 0 to 10 scale
# Outline: as §1
structure (smiles),measurement,setting,value
CC(C)COc1cc(-c2nn3c(c2Cl)CCCC3)c(F)cc1Cl [Compound 30],"Plant response rating, Wild oat",wild oat; Rate 50 g/ha,5
same,"Plant response rating, Wild oat",wild oat; Rate 200 g/ha,6
same,"Plant response rating (0 to 10 scale), Crabgrass","crabgrass; POSTEMERGENCE, Rate 50 g/ha",3
same,"Plant response rating, Crabgrass","crabgrass; POSTEMERGENCE, Rate 200 g/ha",2
same,"Plant response rating, Crabgrass","crabgrass; PREEMERGENCE, Rate 50 g/ha",6
same,"Plant response rating, Crabgrass","crabgrass; Rate 200 g/ha, PREEMERGENCE",9
same,"Plant response rating, Morningglory","morningglory [1]; POSTEMERGENCE, Rate 50 g/ha",8
same,"Plant response rating, Morningglory","morningglory [1]; PREEMERGENCE, Rate 50 g/ha",2
same,"Plant response rating, Morningglory","morningglory [1]; Rate 200 g/ha, POSTEMERGENCE",9
same,"Plant response rating, Morningglory","morningglory [1]; Rate 200 g/ha, PREEMERGENCE",5
same,"Plant response rating, Soybean",soybean [2]; 62 g/ha,50
same,"Plant response rating, Soybean",soybean [2]; 250 g/ha,50
same,"Plant response rating (0 to 100), Soybean",soybean [2]; Rate 4 g/ha,0
same,"Plant response rating (0 to 100), Soybean",soybean [2]; Rate 16 g/ha,20
same,"Plant response rating, Rape","rape; POSTEMERGENCE, Rate 50 g/ha",5
same,"Plant response rating, Rape","rape; PREEMERGENCE, Rate 50 g/ha",0
same,"Plant response rating, Rape","rape; Rate 200 g/ha, POSTEMERGENCE",9
same,"Plant response rating, Rape","rape; Rate 200 g/ha, PREEMERGENCE",3
same,"Plant response rating, Sorghum","sorghum; POSTEMERGENCE, Rate 50 g/ha",4
same,"Plant response rating, Sorghum","sorghum; PREEMERGENCE, Rate 50 g/ha",0
same,"Plant response rating, Sorghum","sorghum; Rate 200 g/ha, POSTEMERGENCE",6
same,"Plant response rating, Sorghum","sorghum; Rate 200 g/ha, PREEMERGENCE",0
same,Plant response rating Downy Brome,downy brome; 62 g/ha,60
same,Plant response rating Downy Brome,downy brome; 250 g/ha,90
same,"Plant response rating (0 to 100), Downy Brome",downy brome; Rate 4 g/ha,20
same,"Plant response rating (0 to 100), Downy Brome",downy brome; Rate 16 g/ha,40
same,"Plant response rating, Chickweed",chickweed [3]; 62 g/ha,50
same,"Plant response rating, Chickweed",chickweed [3]; 250 g/ha,70
same,"Plant response rating (0 to 100), Chickweed",chickweed [3]; Rate 4 g/ha,10
same,"Plant response rating (0 to 100), Chickweed",chickweed [3]; Rate 16 g/ha,20
same,"Plant response rating, Soybean","soybean [4]; POSTEMERGENCE, Rate 50 g/ha",7
same,"Plant response rating, Soybean","soybean [4]; PREEMERGENCE, Rate 50 g/ha",0
same,"Plant response rating, Soybean","soybean [4]; Rate 200 g/ha, POSTEMERGENCE",2
same,"Plant response rating, Soybean","soybean [4]; Rate 200 g/ha, PREEMERGENCE",2
same,"Plant response rating (0 to 10 scale), Corn","corn; POSTEMERGENCE, Rate 50 g/ha",4
same,"Plant response rating, Corn","corn; POSTEMERGENCE, Rate 200 g/ha",4
same,"Plant response rating, Corn","corn; PREEMERGENCE, Rate 50 g/ha",0
same,"Plant response rating, Corn","corn; Rate 200 g/ha, PREEMERGENCE",1
same,Plant response rating Barley Igri,barley; 62 g/ha,50
same,Plant response rating Barley Igri,barley; 250 g/ha,70
same,"Plant response rating (0 to 100), Barley Igri",barley; Rate 4 g/ha,30
same,"Plant response rating (0 to 100), Barley Igri",barley; Rate 16 g/ha,30
same,"Plant response rating, Bedstraw",bedstraw; 62 g/ha,100
same,"Plant response rating, Bedstraw",bedstraw; 250 g/ha,100
same,"Plant response rating (0 to 100), Bedstraw",bedstraw; Rate 4 g/ha,50
same,"Plant response rating (0 to 100), Bedstraw",bedstraw; Rate 16 g/ha,70
same,"Plant response rating, Wild buckwheat",wild buckwheat; 62 g/ha,80
same,"Plant response rating, Wild buckwheat",wild buckwheat; 250 g/ha,100
same,"Plant response rating (0 to 100), Wild buckwheat",wild buckwheat; Rate 4 g/ha,50
same,"Plant response rating (0 to 100), Wild buckwheat",wild buckwheat; Rate 16 g/ha,70
same,"Plant response rating (0 to 10 scale), Chickweed","chickweed [5]; POSTEMERGENCE, Rate 50 g/ha",5
same,"Plant response rating, Chickweed","chickweed [5]; POSTEMERGENCE, Rate 200 g/ha",8
same,"Plant response rating, Chickweed","chickweed [5]; PREEMERGENCE, Rate 50 g/ha",0
same,"Plant response rating, Chickweed","chickweed [5]; Rate 200 g/ha, PREEMERGENCE",3
same,"Plant response rating, Morningglory",morningglory [6]; 62 g/ha,80
same,"Plant response rating, Morningglory",morningglory [6]; 250 g/ha,90
same,"Plant response rating (0 to 100), Morningglory",morningglory [6]; Rate 4 g/ha,30
same,"Plant response rating (0 to 100), Morningglory",morningglory [6]; Rate 16 g/ha,50
same,"Plant response rating, Nutsedge","purple nutsedge; POSTEMERGENCE, Rate 50 g/ha",2
same,"Plant response rating, Nutsedge","purple nutsedge; PREEMERGENCE, Rate 50 g/ha",0
same,"Plant response rating, Nutsedge","purple nutsedge; Rate 200 g/ha, POSTEMERGENCE",5
same,"Plant response rating, Nutsedge","purple nutsedge; Rate 200 g/ha, PREEMERGENCE",0
same,"Plant response rating (0 to 100), Umbrella sedge","umbrella sedge; POSTEMERGENCE section, flood test, Rate 4 g/ha",10
same,"Plant response rating (0 to 100), Umbrella sedge","umbrella sedge; Rate 16 g/ha, under POSTEMERGENCE head (flood test species)",25
same,Plant response rating Umbrella sedge,umbrella sedge; 62 g/ha,30
same,Plant response rating Umbrella sedge,umbrella sedge; 250 g/ha,80
same,"Plant response rating, Wheat","wheat; POSTEMERGENCE, Rate 50 g/ha",4
same,"Plant response rating, Wheat","wheat; PREEMERGENCE, Rate 50 g/ha",0
same,"Plant response rating, Wheat","wheat; Rate 200 g/ha, POSTEMERGENCE",5
same,"Plant response rating, Wheat","wheat; Rate 200 g/ha, PREEMERGENCE",2
